Values of other authors, collected in patent US20200016283A1, “COMBINATION THERAPY COMPRISING A RADIOPHARMACEUTICAL AND A DNA-REPAIR INHIBITOR” (Bayer AS, priority 2017, published 2020).

Settings: complexed at ambient temperature in aqueous solutions

Stability of the Th-227 complex: highly stable
Compound: Cn1ccc(C(=O)NCCN(CCNC(=O)c2ccn(C)c(=O)c2O)CC(Cc2ccc(CC(=O)CCC(=O)O)cc2)CN(CCNC(=O)c2ccn(C)c(=O)c2O)CCNC(=O)c2ccn(C)c(=O)c2O)c(O)c1=O [IV′]
